From patent US20160038532A1, “Treatment of Multiple Sclerosis With Combination of Laquinimod and Glatiramer Acetate” (TEVA PHARMACEUTICAL INDUSTRIES, LTD., priority 2011, published 2016)
Values joined by “and” are separate entries in the source; they are usually repeats but may differ in a detail not shown here. Equal entries are not always repeated.

Key:
MOG-induced EAE [1] = test: MOG-induced EAE with GA blocking and s.c. daily GA (Example 2.5); format: in vivo, C57B1 mice
Method: The objective of this study was to test the suppressive effect of laquinimod alone and in combination with Glatiramer acetate in the EAE model in C57B1 mice. […] Laquinimod was administered orally at dose levels of 2.5 and 5.0 mg/kg.
EAE was induced in the mice by the injection of the encephalitogenic emulsion (MOG/CFA). Laquinimod was administered orally for 30 consecutive days.
EAE induction EAE was induced by injecting the encephalitogenic mixture (emulsion) consisting of MOG ([…]). A 0.2 ml emulsion was injected subcutaneously into the flanks of the mice. Pertussis toxin was injected intraperitoneally on the day of induction and 48 hours later (total amount will be 0.150+0.150=0.300 μg/mouse in 0.2 ml dosage volume).
Groups 1, 3-8: 45.9 mg MOG was diluted in […] Normal Saline (3.0 mg/ml MOG stock solution). 12.5 mL of 3.0 mg/ml stock solution was diluted in 12.5 mL Normal Saline to yield 1.5 mg MOG/mL. […] The emulsification was made from equal parts of oil and liquid portions (1:1) in two syringes connected to each other with Leur lock, transferred to insulin syringe and 0.2 ml was injected the right flank of each mouse. The dose of the MOG in all the groups (1 to 8) was […].
The test concentrations of laquinimod were prepared in purified water. For high dose (25.0 mg/kg) 2.5 mg/mL stock solution was prepared (group 8). The 2.5 mg/mL stock solution was diluted 1:5 and 1:10 to yield 0.5 and 0.25 mg/mL for dose levels of 5.0 mg/kg for groups 5 and 7 and 2.5 mg/kg respectively for groups #4 and 6. Laquinimod was administered daily from the initiation of the study, to the respective groups by gavage at a volume of 0.2 ml/mouse.
Every day one tube was thawed and brought to RT.
Clinical signs Scoring of EAE clinical signs was started from Day 10 post EAE induction and was continued daily until Day 30. The clinical signs were recorded according to a grading system described in the Table 2 above.
All mice having scores of 1 and above were considered sick. When the first clinical sign appeared all mice were given food soaked in water, which was spread on different places on the bedding of the cages. An animal which continued to have score 5 for three days was killed on humane grounds and given score 6 on the next day. For calculation purposes, the score of animals that were sacrificed or died (6) was carried forward.

MOG-induced EAE [2] = test: Summary of studies of GA-blocking + laquinimod in MOG-induced EAE (Examples 2.1-2.3); format: in vivo, mice; conditions: GA-blocking alone
Method: FIG. 4 is a graphical representation summarizing experimental results from Examples 2.1-2.3.
At higher doses (5 and 25 mg/kg) laquinimod provides an additive effect over GA-blocking as summarized in Table 9 and shown on FIGS. 4A and 4B.

MSCH-induced EAE = MSCH-induced EAE in CSJL/F1 mice (Example 2.8); format: in vivo
Method: Disease was induced in all mice by the injection of the encephalitogenic emulsion (MSCH/CFA). The test articles and the vehicle were administered orally twice a day.
For groups 1 and 3 to 6, 360.0 mg MSCH was suspended in 3.0 ml PBS to yield 120 mg/ml MSCH suspension.
0.05 ml was injected into the left foot-pad of each mouse. The concentration of MSCH in emulsion in all groups was 60 mg/mL. The dose of the MSCH in all the groups was 3.0 mg/0.05 ml/mouse. The concentration of MT in emulsion in all groups was 0.25 mg/mL. The dose of the MT in all the groups was 0.0125 mg/0.05 ml/mouse.
36 μL Pertussis toxin (200 μg/ml) was added to 44.964 ml PBS to yield 160 ng/ml. The pertussis toxin was administered intravenous on the day of encephalitogen injection and 48 hours later (80.0 ng/0.5 ml/mouse).
Solutions at concentration of 0.001, 0.01, 0.03 and 0.1 mg/mL laquinimod were prepared in water for dose levels of 0.01, 0.1, 0.3 and 1.0 mg/kg respectively. The test formulations were stored at 2 to 8° C. until use in amber colored bottles.
The mice were administered with the respective dose levels of laquinimod at volume dose level of 200 μL/mouse. The test formulations were vortexed before dispensing in syringe.
The different dose levels laquinimod were administered to the respective groups once a day.
Scoring of EAE clinical signs was initiated from the 10th day post-EAE induction and was continued daily until Day 23. The clinical signs were recorded on observation cards according to a grading system described in the table 23 above. Animals with score 4 for more than three days were given score 5 and sacrificed for humane reasons. For calculation purposes, the score (5) of animals that are sacrificed or died were carried forward.
The calculations are as shown in Example 2.4.

[3] = GA blocking 12.5 mg/kg once with encephalitogen
[4] = GA blocking 12.5 mg/kg once with encephalitogen, listed as GA blocking
[5] = GA 0.5 mg/kg (sub optimal) with encephalitogen
[6] = GA blocking 0.5 mg/kg (sub-optimal dose), with encephalitogen

Q: With “L-glutamic acid polymer with L-alanine, L-lysine and L-tyrosine, acetate (salt) [GA]” as the substance, how does the “% Inhibition 1 (incidence)” value (MOG-induced EAE [1]; GA 250 mg/kg s.c. daily 10 d) read?
A: The value was 100.0%.

Q: And the “GMS % Inhibition 3” value (MOG-induced EAE [1]; GA 250 mg/kg s.c. daily 10 d)?
A: The value was 4.8%.

Q: And the GMS value (MOG-induced EAE [1]; GA 250 mg/kg s.c. daily 10 d)?
A: Its GMS value is 2.0 ± 1.0.

Q: What about the Incidence (MOG-induced EAE [1]; GA 250 mg/kg s.c. daily 10 d) of the same substance?
A: Its Incidence is 13/15.

Q: And the “MMS % Inhibition 2” value (MOG-induced EAE [1]; GA 250 mg/kg s.c. daily 10 d)?
A: Its value is 2.9%.

Q: And the MMS value (MOG-induced EAE [1]; GA 250 mg/kg s.c. daily 10 d)?
A: Its MMS value is 3.3 ± 1.4.

Q: What about the “Mean Duration” value (MOG-induced EAE [1]; GA 250 mg/kg s.c. daily 10 d) of the same substance?
A: The value was 12.1 ± 5.3 days.

Q: And the “Mean Onset” value (MOG-induced EAE [1]; GA 250 mg/kg s.c. daily 10 d)?
A: Its value is 18.1 ± 5.5 days.

Q: What about the “% Inhibition 1 (incidence)” value (MOG-induced EAE [1]; [3]) of the same substance?
A: The value was 57.1%.

Q: And the GMS value (MOG-induced EAE [1]; [3])?
A: Its GMS value is 0.7 ± 1.0.

Q: What about the Incidence (MOG-induced EAE [1]; [3]) of the same substance?
A: Its Incidence is 6/15.

Q: What about the “MMS % Inhibition 2” value (MOG-induced EAE [1]; [3]) of the same substance?
A: The value was 61.8%.

Q: What about the “GMS % Inhibition 3” value (MOG-induced EAE [1]; [4]) of the same substance?
A: Its value is 66.7%.

Q: What about the MMS value (MOG-induced EAE [1]; [4]) of the same substance?
A: Its MMS value is 1.3 and 1.3 ± 1.8.

Q: What about the “Mean Duration” value (MOG-induced EAE [1]; [4]) of the same substance?
A: Its value is 12.1 days and 12.1 ± 5.3 days.

Q: And the “Mean Onset” value (MOG-induced EAE [1]; [4])?
A: Its value is 26.1 ± 7.0 days.

Q: And the “GMS % Inhibition 3” value (MOG-induced EAE [1]; GA blocking 12.5 mg/kg once with encephalitogen, listed as GA-Block)?
A: The value was “(66.7) %”.

Q: And the “Mean percent inhibition, Examples 2.1-2.3 summarized” value (MOG-induced EAE [2])?
A: The value was 67.6%.

Q: And the Incidence (MSCH-induced EAE; [5])?
A: The Incidence was 4/11.

Q: What about the MMS (MSCH-induced EAE; [5]) of the same substance?
A: Its MMS is 1.1±15.

Q: And the “activity according to GMS” value (MSCH-induced EAE; [5])?
A: The value was 79.4%.

Q: What about the “% Inhibition 1 (according to Incidence)” value (MSCH-induced EAE; [6]) of the same substance?
A: The value was 60.0%.

Q: What about the “% Inhibition 2 (according to MMS)” value (MSCH-induced EAE; [6]) of the same substance?
A: The value was 75.5%.

Q: And the “% Inhibition 3 (according to GMS)” value (MSCH-induced EAE; [6])?
A: The value was 79.4%( ).

Q: What about the “GMS value (Group Mean Score)” value (MSCH-induced EAE; [6]) of the same substance?
A: Its value is 0.7 ± 1.0.

Q: And the Incidence (MSCH-induced EAE; [6])?
A: Its Incidence is 4/11.

Q: And the “MMS value (Mean Maximal Score)” value (MSCH-induced EAE; [6])?
A: Its value is 1.1 ± 1.5.

Q: What about the “Mean Duration” value (MSCH-induced EAE; [6]) of the same substance?
A: Its value is 3.6 days.

Q: And the “Onset” value (MSCH-induced EAE; [6])?
A: Its value is 20.4 days.
